Experiments:
An. gambiae females [1] = assay: Mating success (insemination) after topical DBH application; assay type: in vivo
Protocol: (§1) An. gambiae mosquitoes of the G3 strain were employed in all experiments. All mosquitoes were maintained under standard insectary conditions (26-28° C., 65-80% relative humidity, 12:12 hours light/dark photoperiod).
(§2) The DBH compound methoxyfenozide (0.5 μl of a 0.4% solution re-suspended in acetone) (Sigma-Aldrich, 32507) was topically applied to the thorax of An. gambiae females anesthetized on ice using a micropipette. Mating success, egg development after blood feeding and longevity were determined relative to acetone-treated controls. Females were 2 days old at the time of application, and each experiment was replicated twice. The effects of methoxyfenozide on mating success were determined by adding DBH-treated and control virgin females into separate cages containing a large excess of 5 day-old virgin males, 24 hours following topical application. 48 hours later successfully inseminated (mated) females from each cage were determined via dissection and the presence of sperm in the spermatheca. […] Egg development was evaluated 3 days later upon dissection of the ovaries.
(§3) A mating effect experiment was comprised of an unexposed and exposed group with cases defined as those who mated. The efficacy of the mating effect was defined as the prevented fraction in exposed, i.e. one minus the risk ratio. […]

An. gambiae females [2] = assay: Egg development after blood feeding; assay type: in vivo
Protocol: as §1, §2, §3

An. gambiae females [3] = assay: Longevity / mortality after DBH exposure; assay type: in vivo
Protocol: as §1
For the longevity experiments, DBH-treated and control females were maintained in cups and supplied ad libitum with a 10% sucrose solution and water. Mortality rates after DBH/acetone exposure were recorded daily for 2 weeks, encompassing the period needed for mosquitoes to become infectious.
Day post-exposure was stratified to account for the time varying nature in the mortality effect experiment. For each day, there is the number of exposed and unexposed mosquitoes surviving to that day (risk set), and the number in each group surviving through that day. Using the risk set in day i, the relative risk of surviving through day i (RRi) is estimated, comparing the exposed to the unexposed. The efficacy for the mortality was defined as one minus RRi for day i. The confidence interval for the relative risk of survival was estimated using a Normal approximation of ln(RRi), with standard error:
(§4) At the highest dose (2 μg), only 7.5% of females who fully engorged on an infectious blood meal were positive for oocysts, corresponding to an 87% reduction in infection prevalence relative to controls.

An. gambiae females [4] = assay: Dose dependency of egg laying (oviposition); assay type: in vivo; conditions: for individuals laying eggs: 24 hours prior to blood feeding, control 100%
Protocol: as §1
Mated females were tested for their ability to develop and lay eggs when exposed to DBH 24 hours prior to blood feeding at 5 different doses ranging in a 2-fold dilution series from about 2 μg to about 0.125 μg per mosquito, respectively. One hundred percent (100%) of the control females oviposited after a blood meal. […] An ED50 dose of […] (0.08-0.13 95% CI) was determined from the dose-response curve (slope of 2.32, R=0.993). Moreover, even in cases where females oviposited, a significant reduction in the number of eggs laid was detected at the three highest doses (e.g., 2 μg; 1 μg; and 0.5 μg), with a median egg number of zero compared to a median of 91.5 eggs in the control group.

[5] = tested on: primary ovarian follicles; assay: TUNEL assay of ovaries (apoptosis of ovarian follicles); assay type: in vivo, An. gambiae; conditions: 24 hours after DBH exposure
Source text: Induction of autogenous egg development after exposure was not observed.

[6] = tested on: P. falciparum (NF54 strain); assay: P. falciparum infection (oocysts) after infectious blood meal; assay type: in vivo
Protocol: as §4

Aedes species = assay: Preliminary data on eggs of Aedes species; assay type: in vivo
mammals = conditions: cited from earlier work

Substance: methoxyfenozide [DBH]
- efficacy: reduced mating success (reduction) (An. gambiae females [1]; prevented fraction in exposed, 68% CI 58-73%): 67%
- females successfully inseminated by males (sperm in the spermatheca) (An. gambiae females [1]; treated once, 0.5 μl of 0.4% solution topically to thorax, controls 86%): 29%
- egg development after blood feeding (An. gambiae females [2]; 0.5 μl of 0.4% solution topical, blood fed 24 hours after application, ovaries dissected 3 days later): completely abolished
- efficacy: impaired egg development (reduction) (An. gambiae females [2]; prevented fraction in exposed, add-one smoothing, 68% CI 94-99%): 98%
- median survival time (An. gambiae females [3]; 0.125 μg, control 19 days): 16 days
- median survival time (An. gambiae females [3]; 2 μg, control 19 days): 11 days
- mortality over 14 days (An. gambiae females [3]; 0.5 μl of 0.4% solution topical, controls 10%): ~100%
- median survival time (An. gambiae females [3]; 0.5 μl of 0.4% solution topical, recorded 2 weeks): 8 days
- efficacy: maximum increase in daily mortality rate (An. gambiae females [3]; day 8 post exposure, 68% CI 37-72%): 60%
- reduction in median survival time compared to controls (An. gambiae females [3]; highest dose (2 μg)): eight
- females with no eggs developed in the ovaries despite fully engorging on blood (An. gambiae females [4]; all DBH-exposed groups, upon dissection): 98.7%
- individuals laying eggs (An. gambiae females [4]; highest dose 2 μg per mosquito): 10.9%
- induction of autogenous egg development after exposure (An. gambiae females [4]; in vivo): not observed
- individuals laying eggs (An. gambiae females [4]; median dose 0.5 μg per mosquito): 47.4%
- median egg number laid (An. gambiae females [4]; three highest doses (2 μg; 1 μg; 0.5 μg), control median 91.5 eggs): zero
- TUNEL: apoptosis of primary ovarian follicles [5]: extensive fragmentation of chromatin, indicative of apoptosis
- reduction in infection prevalence relative to controls ([6]; 2 μg): 87%
- females positive for oocysts ([6]; 2 μg, 7 days post-infectious blood meal, control 58.5%): 7.5%
- intensity of infection in females that developed oocysts ([6]; in vivo): not significantly affected
- oocyst prevalence ([6]; low dose 0.125 μg, control 58.5%): 50.7%
- females failed to develop an infection ([6]; median dose 0.5 μg): 25.8%
- reduction in prevalence ([6]; median dose 0.5 μg): 56%
- effect on eggs (Aedes species): deformed eggs
- carcinogenicity (mammals): non-carcinogenic
- toxicity to mammals (mammals): not toxic to mammals unless used at extremely high concentrations
